Measurements taken from ChEMBL document CHEMBL5370542, “Current advances of small molecule E3 ligands for proteolysis-targeting chimeras design” (Eur J Med Chem, 2023).
Each block holds one compound with its values, some of them ahead of it.

Legend:
[1] = target: T1, von Hippel-Lindau disease tumor suppressor/GTPase KRas (Homo sapiens, UniProt P01116+P40337, G12C); experiment: PROTAC activity at VHL/KRAS G12C mutant in human NCI-H23 cells assessed as induction of KRAS G12C degradation by Immunoblot analysis; type: cell-based
T1 sequence (P01116 whole entry G12C, stated change not applied): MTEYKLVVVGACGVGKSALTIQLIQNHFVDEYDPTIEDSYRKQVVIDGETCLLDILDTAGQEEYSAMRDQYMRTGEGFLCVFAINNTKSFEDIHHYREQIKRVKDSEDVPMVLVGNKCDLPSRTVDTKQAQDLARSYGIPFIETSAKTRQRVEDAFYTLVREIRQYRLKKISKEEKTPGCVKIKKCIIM
T1 sequence (P40337 whole entry, stated change not applied): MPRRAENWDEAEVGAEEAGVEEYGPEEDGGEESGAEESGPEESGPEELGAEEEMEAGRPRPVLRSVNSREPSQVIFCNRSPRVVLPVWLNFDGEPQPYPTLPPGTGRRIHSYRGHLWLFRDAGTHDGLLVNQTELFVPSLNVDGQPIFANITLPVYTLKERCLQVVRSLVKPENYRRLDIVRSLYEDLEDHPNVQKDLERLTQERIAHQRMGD

[2] = target: T1, von Hippel-Lindau disease tumor suppressor/GTPase KRas; experiment: PROTAC activity at VHL/KRAS G12C mutant in human MIA PaCa-2 cells assessed as induction of KRAS G12C degradation by Immunoblot analysis; type: cell-based
[3] = target: T1, von Hippel-Lindau disease tumor suppressor/GTPase KRas; experiment: PROTAC activity at VHL/KRAS G12C mutant in human NCI-H358 cells assessed as induction of KRAS G12C degradation by Immunoblot analysis; type: cell-based
[4] = target: T1, von Hippel-Lindau disease tumor suppressor/GTPase KRas; experiment: PROTAC activity at VHL/KRAS G12C mutant in human SW1573 cells assessed as induction of KRAS G12C degradation by Immunoblot analysis; type: cell-based
[5] = target: T1, von Hippel-Lindau disease tumor suppressor/GTPase KRas; experiment: PROTAC activity at VHL/KRAS G12C mutant in human NCI- H2030 cells assessed as induction of KRAS G12C degradation by Immunoblot analysis; type: cell-based
[6] = target: von Hippel-Lindau disease tumor suppressor (Homo sapiens, UniProt P40337); experiment: Binding affinity to VHL (unknown origin) assessed as inhibition constant
von Hippel-Lindau disease tumor suppressor, sequence (P40337 whole entry): as the sequence (P40337 whole entry, stated change not applied) above

[7] = test system: MV4-11; experiment: Antiproliferative activity against human MV4-11 cells assessed as inhibition of cell growth incubated for 3 days by CellTiter-Glo assay; type: functional, cell-based; conditions: MV4-11, 72 h
[8] = target: Bromodomain-containing protein 4 (Homo sapiens, UniProt O60885); experiment: Induction of HiBit-tagged BRD4 degradation in human A549 cells incubated for 4 to 24 hrs by luminescence based Nano-Glo assay; type: cell-based
[9] = target: Protein cereblon/Mitogen-activated protein kinase 13 (Homo sapiens) (UniProt O15264+Q96SW2); experiment: PROTAC activity at CRBN/N-terminal His-tagged human p38delta expressed in Escherichia coli BL21-CodonPlus (DE3)-RIPL cells assessed as maximal degradation degradation relative to control
Protein cereblon/Mitogen-activated protein kinase 13 (Homo sapiens), sequence (O15264 whole entry, looked up): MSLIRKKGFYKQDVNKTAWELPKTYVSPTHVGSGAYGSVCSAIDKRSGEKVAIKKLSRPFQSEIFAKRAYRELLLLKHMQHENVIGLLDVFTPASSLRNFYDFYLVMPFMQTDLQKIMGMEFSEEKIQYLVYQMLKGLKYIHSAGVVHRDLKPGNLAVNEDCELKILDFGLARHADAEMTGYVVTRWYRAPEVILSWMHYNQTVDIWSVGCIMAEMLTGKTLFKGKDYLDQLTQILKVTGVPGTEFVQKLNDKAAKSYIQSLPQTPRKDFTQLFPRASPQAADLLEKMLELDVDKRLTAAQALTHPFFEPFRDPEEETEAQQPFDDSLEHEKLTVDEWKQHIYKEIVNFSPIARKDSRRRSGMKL
Protein cereblon/Mitogen-activated protein kinase 13 (Homo sapiens), sequence (Q96SW2 whole entry, looked up): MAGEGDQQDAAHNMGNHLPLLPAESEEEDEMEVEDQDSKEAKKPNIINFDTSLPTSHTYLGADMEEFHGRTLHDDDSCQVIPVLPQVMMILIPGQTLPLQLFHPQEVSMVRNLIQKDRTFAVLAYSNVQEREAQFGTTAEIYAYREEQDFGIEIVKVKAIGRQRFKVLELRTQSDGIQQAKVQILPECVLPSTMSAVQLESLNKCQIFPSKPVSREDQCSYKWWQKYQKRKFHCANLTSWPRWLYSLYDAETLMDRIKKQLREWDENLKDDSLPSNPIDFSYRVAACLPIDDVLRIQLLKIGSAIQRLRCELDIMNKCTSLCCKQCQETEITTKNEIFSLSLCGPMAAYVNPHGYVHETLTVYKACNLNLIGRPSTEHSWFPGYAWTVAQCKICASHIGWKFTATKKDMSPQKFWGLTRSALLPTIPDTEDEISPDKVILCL

[10] = target: von Hippel-Lindau disease tumor suppressor/Mitogen-activated protein kinase 14 (Homo sapiens) (UniProt Q16539+P40337); experiment: PROTAC activity at VHL/N-terminal His-tagged human p38alpha expressed in Escherichia coli BL21-CodonPlus (DE3)-RIPL cells assessed as maximal degradation relative to control
von Hippel-Lindau disease tumor suppressor/Mitogen-activated protein kinase 14 (Homo sapiens), sequence (P40337 whole entry partner): as the sequence (P40337 whole entry, stated change not applied) above
von Hippel-Lindau disease tumor suppressor/Mitogen-activated protein kinase 14 (Homo sapiens), sequence (Q16539 2-360 limits assumed): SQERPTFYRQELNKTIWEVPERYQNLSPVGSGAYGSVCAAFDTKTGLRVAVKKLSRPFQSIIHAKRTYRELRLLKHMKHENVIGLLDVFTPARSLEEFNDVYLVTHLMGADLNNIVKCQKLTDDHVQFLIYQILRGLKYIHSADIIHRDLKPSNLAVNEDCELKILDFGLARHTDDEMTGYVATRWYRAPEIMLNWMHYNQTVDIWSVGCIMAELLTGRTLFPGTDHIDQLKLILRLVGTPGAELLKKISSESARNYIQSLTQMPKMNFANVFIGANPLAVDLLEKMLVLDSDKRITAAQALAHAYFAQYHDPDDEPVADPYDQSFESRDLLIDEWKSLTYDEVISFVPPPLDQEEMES

Structure (SMILES): C=C(F)C(=O)N1CCN(c2nc(OC[C@@H]3CCCN3CCCOCCC(=O)N[C@H](C(=O)N3C[C@H](O)C[C@H]3C(=O)NCc3ccc(-c4scnc4C)cc3)C(C)(C)C)nc3c2CCN(c2cccc4cccc(Cl)c24)C3)C[C@@H]1CC#N
- EC50 [1]: 250 nM
- EC50 [2]: 250 nM
- EC50 [3]: 250 nM
- EC50 [4]: 250 nM
- EC50 [5]: 250 nM

- Ki [6]: 670 nM
Structure (SMILES): Cc1ncsc1-c1ccc(CNC(=O)[C@@H]2C[C@@H](O)CN2C(=O)c2cccc(N)c2C)cc1

- IC50 [7]: 6.1 nM
Structure (SMILES): Cc1sc2c(c1C)C(c1ccc(Cl)cc1)=N[C@@H](CC(=O)NCCCCNC(=O)COc1cccc3c1C(=O)N(C1CCC(=O)NC1=O)C3=O)c1nnc(C)n1-2 (stereo not given in full)

- EC50 [8]: < 50 nM
Structure (SMILES): Cc1cc([C@@H](C(=O)N2C[C@@H](O)C[C@@H]2C(=O)N[C@H](C)c2ccc(-c3scnc3C#CCOCCOCCOCCNC(=O)C[C@@H]3N=C(c4ccc(Cl)cc4)c4c(sc(C)c4C)-n4c(C)nnc43)cc2)C(C)C)on1

- Emax [9]: 91%
- Emax [10]: 91%
Structure (SMILES): COc1cc2c(Oc3ccc(NC(=O)C4(C(=O)Nc5ccc(F)cc5)CC4)cc3F)ccnc2cc1OCCCN1CCOCC1
